We go through one compound from patent US20240189284A1, “COMPOSITION FOR PROMOTING LIPOLYSIS” (SUNTORY HOLDINGS LIMITED, priority 2021, published 2024).

One test relates to lipolysis. Put plainly: Blood metabolome evaluation study on human (placebo-controlled, randomized, double-blind, parallel-group; CE-TOF-MS). Type of test: in vivo. As for the experimental part: In order to evaluate the influence of supplements containing ergothioneine on the human blood metabolome, a placebo-controlled, randomized, double-blind, parallel-group study was conducted on subjects including male and female adults (46 subjects in a test food group; 46 subjects in a control food group; 92 subjects in total). In this study, one capsule containing 20 mg ergothioneine (test food) or one capsule not containing ergothioneine (control food) was fed per day for four weeks. The blood metabolome of each subject was measured for pre-testing before starting the study (before starting ingestion of the test food or control food). After ingestion of the test food or control food for four weeks, the blood metabolome of each subject was measured again (testing on week 4). The blood metabolome was measured by a capillary electrophoresis time-of-flight mass spectrometry (CE-TOF-MS) available from Human Metabolome Technologies, Inc. Two types of food for evaluation, which were indistinguishable in appearance, flavor, and the like, were used. • Test food: capsule containing a test substance (20 mg L-ergothioneine) • Control food: capsule containing no test substance Each type of food for evaluation contained raw materials such as dextrin, hydroxypropyl cellulose, carrageenan, potassium chloride, and titanium oxide, in addition to the test substance. The control food was produced using the same raw materials used in the test food, except that the test substance (L-ergothioneine) was not added. For each of lipid metabolism-related metabolites and lipids of various kinds for which significant changes were observed by the blood metabolome measurement, a ratio (test food group/control food group) was determined from the average of measurements (blood concentrations) of the test food group and the control food group at the time of testing on week 4. FIG. 1 is a graph showing blood metabolome measurements of the test food group and the control food group at the time of testing on week 4 in the form of ratios (test food group/control food group). […]

The conditions of test [1]: mice, oral administration, vs. mice not administered; cited from earlier work.
[2] abbreviates: L-ergothioneine ingested compared to no L-ergothioneine ingested.

With `C[N+](C)(C)[C@@H](Cc1c[nH]c(=S)[nH]1)C(=O)[O-]` [L-ergothioneine], in the test with lipolysis (setting [2]), the “blood free fatty acid (e.g., palmitoleic acid) concentration” value is “increased” and the blood glycerol concentration result is recorded as “significantly increased”. For the same compound, in the test on lipolysis (human adults, 20 mg L-ergothioneine per day for four weeks, blood metabolome as a whole), the promotion of lipolysis entry is “action to promote lipolysis”. In test [1], the peritesticular fat weight entry was “lower” and the “triglyceride (neutral fat) level in plasma” value is given as “lower”.
